Assay results taken from PubChem BioAssay (NCI).
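How tested: cells in 96-well plates exposed to compound for 48 hours at five concentrations. GI50: concentration for 50% inhibition of growth. The concentration for full growth arrest is given as TGI.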

Experiments:
Experiment in all cases: inhibition of tumour cell growth, NCI panel, 48 h
A498 renal = system: A498 renal
A549 NSCLC = system: A549 NSCLC
ACHN renal = system: ACHN renal
CAKI-1 renal = system: CAKI-1 renal
CCRF-CEM leukemia = system: CCRF-CEM leukemia
COLO 205 colon = system: COLO 205 colon
DU-145 prostate = system: DU-145 prostate
EKVX NSCLC = system: EKVX NSCLC
HCC-2998 colon = system: HCC-2998 colon
HCT-15 colon = system: HCT-15 colon
HL-60(TB) leukemia = system: HL-60(TB) leukemia
HOP-62 NSCLC = system: HOP-62 NSCLC
HOP-92 NSCLC = system: HOP-92 NSCLC
HS 578T breast = system: HS 578T breast
HT29 colon = system: HT29 colon
IGROV1 ovarian = system: IGROV1 ovarian
K-562 leukemia = system: K-562 leukemia
KM12 colon = system: KM12 colon
LOX IMVI melanoma = system: LOX IMVI melanoma
MALME-3M melanoma = system: MALME-3M melanoma
MCF7 breast = system: MCF7 breast
MDA-MB-231 breast = system: MDA-MB-231 breast
MDA-MB-435 = system: MDA-MB-435
MOLT-4 leukemia = system: MOLT-4 leukemia
NCI-H226 lung = system: NCI-H226 lung
NCI-H23 lung = system: NCI-H23 lung
NCI-H460 lung = system: NCI-H460 lung
NCI-H522 lung = system: NCI-H522 lung
NCI/ADR-RES ovarian = system: NCI/ADR-RES ovarian
OVCAR-3 ovarian = system: OVCAR-3 ovarian
OVCAR-4 ovarian = system: OVCAR-4 ovarian
OVCAR-5 ovarian = system: OVCAR-5 ovarian
OVCAR-8 ovarian = system: OVCAR-8 ovarian
PC-3 prostate = system: PC-3 prostate
RPMI-8226 leukemia = system: RPMI-8226 leukemia
RXF 393 renal = system: RXF 393 renal
SF-268 CNS = system: SF-268 CNS
SF-295 CNS = system: SF-295 CNS
SF-539 CNS = system: SF-539 CNS
SK-MEL-2 melanoma = system: SK-MEL-2 melanoma
SK-MEL-28 melanoma = system: SK-MEL-28 melanoma
SK-MEL-5 melanoma = system: SK-MEL-5 melanoma
SK-OV-3 ovarian = system: SK-OV-3 ovarian
SN12C renal = system: SN12C renal
SNB-19 CNS = system: SNB-19 CNS
SNB-75 CNS = system: SNB-75 CNS
SW-620 colon = system: SW-620 colon
T-47D breast = system: T-47D breast
TK-10 renal = system: TK-10 renal
U251 CNS = system: U251 CNS
UACC-257 melanoma = system: UACC-257 melanoma
UACC-62 melanoma = system: UACC-62 melanoma
UO-31 renal = system: UO-31 renal
786-0 renal = system: 786-0 renal
BT-549 breast = system: BT-549 breast
HCT-116 colon = system: HCT-116 colon

## Oc1ccc(C#CCOc2ccccc2)cc1CNCCN(Cc1ccccn1)Cc1ccccn1
A498 renal
  GI50: 1.19 µM
  TGI: 2.44 µM
A549 NSCLC
  GI50: 1.33 µM
  TGI: 3.47 µM
ACHN renal
  GI50: 1.16 µM
  TGI: 2.38 µM
CAKI-1 renal
  GI50: 1.33 µM
  TGI: 2.75 µM
CCRF-CEM leukemia
  GI50: 0.833 µM
  TGI: 10.7 µM
COLO 205 colon
  GI50: 2.8 µM
  TGI: 9.74 µM
DU-145 prostate
  GI50: 1.08 µM
  TGI: 2.95 µM
EKVX NSCLC
  GI50: 1.24 µM
  TGI: 3.33 µM
HCC-2998 colon
  GI50: 1.65 µM
  TGI: 3.36 µM
HCT-15 colon
  GI50: 1.13 µM
  TGI: 3.55 µM
HL-60(TB) leukemia
  GI50: 1.19 µM
  TGI: 4.21 µM
HOP-62 NSCLC
  GI50: 0.762 µM
  TGI: 2.96 µM
HOP-92 NSCLC
  GI50: 1.57 µM
  TGI: 4.1 µM
HS 578T breast
  GI50: 1.69 µM
  TGI: 6.14 µM
HT29 colon
  GI50: 2.54 µM
  TGI: 12.6 µM
IGROV1 ovarian
  GI50: 0.45 µM
  TGI: 1.66 µM
K-562 leukemia
  GI50: 2.49 µM
  TGI: 13.8 µM
KM12 colon
  GI50: 1.28 µM
  TGI: 2.91 µM
LOX IMVI melanoma
  GI50: 1.25 µM
  TGI: 2.79 µM
MALME-3M melanoma
  GI50: 1.63 µM
  TGI: 3.31 µM
MCF7 breast
  GI50: 1.07 µM
  TGI: 4.43 µM
MDA-MB-231 breast
  GI50: 1.38 µM
  TGI: 2.96 µM
MDA-MB-435
  GI50: 1.82 µM
  TGI: 3.44 µM
MOLT-4 leukemia
  GI50: 2 µM
  TGI: 5.56 µM
NCI-H226 lung
  GI50: 1.34 µM
  TGI: 3.1 µM
NCI-H23 lung
  GI50: 1.83 µM
  TGI: 5.51 µM
NCI-H460 lung
  GI50: 0.538 µM
  TGI: 2.38 µM
NCI-H522 lung
  GI50: 2.07 µM
  TGI: 6.67 µM
NCI/ADR-RES ovarian
  GI50: 1.83 µM
  TGI: 6.68 µM
OVCAR-3 ovarian
  GI50: 1.47 µM
  TGI: 3.04 µM
OVCAR-4 ovarian
  GI50: 1.29 µM
  TGI: 3.71 µM
OVCAR-5 ovarian
  GI50: 1.18 µM
  TGI: 3.72 µM
OVCAR-8 ovarian
  GI50: 1 µM
  TGI: 6.55 µM
PC-3 prostate
  GI50: 0.799 µM
  TGI: 4.06 µM
RPMI-8226 leukemia
  GI50: 1.53 µM
  TGI: 6.2 µM
RXF 393 renal
  GI50: 1.49 µM
  TGI: 2.96 µM
SF-268 CNS
  GI50: 1.37 µM
  TGI: 4.29 µM
SF-295 CNS
  GI50: 0.552 µM
  TGI: 1.89 µM
SF-539 CNS
  GI50: 1.6 µM
  TGI: 3.09 µM
SK-MEL-2 melanoma
  GI50: 2.08 µM
  TGI: 4.85 µM
SK-MEL-28 melanoma
  GI50: 2.04 µM
  TGI: 5.91 µM
SK-MEL-5 melanoma
  GI50: 1.49 µM
  TGI: 2.84 µM
SK-OV-3 ovarian
  GI50: 0.944 µM
  TGI: 2.27 µM
SN12C renal
  GI50: 1.08 µM
  TGI: 2.65 µM
SNB-19 CNS
  GI50: 0.797 µM
  TGI: 7.67 µM
SNB-75 CNS
  GI50: 1.24 µM
  TGI: 4.13 µM
SW-620 colon
  GI50: 1.86 µM
  TGI: 4.89 µM
T-47D breast
  GI50: 2.88 µM
  TGI: 13.8 µM
TK-10 renal
  GI50: 1.22 µM
  TGI: 3.06 µM
U251 CNS
  GI50: 0.668 µM
  TGI: 5.16 µM
UACC-257 melanoma
  GI50: 2.55 µM
  TGI: 6.83 µM
UACC-62 melanoma
  GI50: 1.68 µM
  TGI: 3.59 µM
UO-31 renal
  GI50: 1.02 µM
  TGI: 2.5 µM

## Clc1ccc(Nc2ccnc(NCCCNc3ccnc4cc(Cl)ccc34)n2)cc1
786-0 renal
  GI50: 1.73 µM
  TGI: 3.33 µM
A498 renal
  GI50: 1.29 µM
  TGI: 2.66 µM
A549 NSCLC
  GI50: 1.73 µM
  TGI: 3.35 µM
ACHN renal
  GI50: 1.57 µM
  TGI: 3.04 µM
BT-549 breast
  GI50: 1.74 µM
  TGI: 3.67 µM
CAKI-1 renal
  GI50: 1.43 µM
  TGI: 2.83 µM
DU-145 prostate
  GI50: 1.86 µM
  TGI: 3.35 µM
HCT-116 colon
  GI50: 1.42 µM
  TGI: 3.1 µM
HOP-62 NSCLC
  GI50: 1.48 µM
  TGI: 2.94 µM
HOP-92 NSCLC
  GI50: 1.16 µM
  TGI: 2.85 µM
HS 578T breast
  GI50: 1.73 µM
  TGI: 3.8 µM
HT29 colon
  GI50: 1.29 µM
  TGI: 2.83 µM
NCI-H23 lung
  GI50: 1.79 µM
  TGI: 3.53 µM
NCI-H522 lung
  GI50: 1.95 µM
  TGI: 3.68 µM
NCI/ADR-RES ovarian
  GI50: 1.76 µM
  TGI: 3.38 µM
OVCAR-5 ovarian
  GI50: 1.68 µM
  TGI: 3.09 µM
OVCAR-8 ovarian
  GI50: 1.82 µM
  TGI: 3.62 µM
PC-3 prostate
  GI50: 1.58 µM
  TGI: 3.13 µM
SF-295 CNS
  GI50: 1.55 µM
  TGI: 2.96 µM
SF-539 CNS
  GI50: 1.67 µM
  TGI: 3.19 µM
SK-MEL-2 melanoma
  GI50: 1.98 µM
  TGI: 3.61 µM
SK-MEL-28 melanoma
  GI50: 1.64 µM
  TGI: 3.07 µM
SK-MEL-5 melanoma
  GI50: 1.4 µM
  TGI: 2.75 µM
SK-OV-3 ovarian
  GI50: 1.57 µM
  TGI: 2.94 µM
SNB-75 CNS
  GI50: 1.23 µM
  TGI: 2.5 µM
SW-620 colon
  GI50: 1.49 µM
  TGI: 3.11 µM
TK-10 renal
  GI50: 1.94 µM
  TGI: 3.41 µM
U251 CNS
  GI50: 1.48 µM
  TGI: 2.91 µM
UACC-257 melanoma
  GI50: 1.87 µM
  TGI: 3.43 µM
UO-31 renal
  GI50: 1.68 µM
  TGI: 3.31 µM
